Source: ChEMBL document CHEMBL5120961, “N-Arylimidazoliums as Highly Selective Biomimetic Antimicrobial Agents” (J Med Chem, 2022)
Calls of active or inactive are those of the source. No cut-off for these calls is given here.

Legend:
[1] = system: Staphylococcus aureus; experiment: Antibacterial activity against methicillin-resistant Staphylococcus aureus ATCC 43300 assessed as inhibition of bacterial growth incubated for 16 to 18 hrs by broth microdilution method; assay type: functional; details: time 16-18 hrs
[2] = system: Staphylococcus aureus; experiment: Antibacterial activity against Staphylococcus aureus ATCC 25923 assessed as inhibition of bacterial growth incubated for 16 to 18 hrs by broth microdilution method; assay type: functional; details: time 16-18 hrs
[3] = system: Escherichia coli; experiment: Antibacterial activity against Escherichia coli ATCC 25922 assessed as inhibition of bacterial growth incubated for 16 to 18 hrs by broth microdilution method; assay type: functional; details: time 16-18 hrs
[4] = system: Erythrocyte; experiment: Hemolytic activity in rabbit erythrocytes incubated for 1 hr; assay type: toxicity, cell-based, Oryctolagus cuniculus
[5] = Selectivity ratio of HC5 for hemolytic activity in rabbit erythrocytes to MIC for antibacterial activity against methicillin-resistant Staphylococcus aureus ATCC 43300; assay type: toxicity, cell-based
[6] = system: Enterococcus faecalis; experiment: Antibacterial activity against Enterococcus faecalis ATCC 29212 assessed as inhibition of bacterial growth incubated for 16 to 18 hrs by broth microdilution method; assay type: functional; details: time 16-18 hrs
[7] = system: Acinetobacter baumannii; experiment: Antibacterial activity against Acinetobacter baumannii ATCC 19606 assessed as inhibition of bacterial growth incubated for 16 to 18 hrs by broth microdilution method; assay type: functional; details: time 16-18 hrs
[8] = system: Pseudomonas aeruginosa; experiment: Antibacterial activity against Pseudomonas aeruginosa ATCC 27853 assessed as inhibition of bacterial growth incubated for 16 to 18 hrs by broth microdilution method; assay type: functional; details: time 16-18 hrs
[9] = system: Klebsiella pneumoniae; experiment: Antibacterial activity against Klebsiella pneumoniae CMCC(B) 46117 assessed as inhibition of bacterial growth incubated for 16 to 18 hrs by broth microdilution method; assay type: functional; details: time 16-18 hrs
[10] = system: Staphylococcus aureus; experiment: Bactericidal activity against Staphylococcus aureus ATCC 25923 assessed as eradication of bacterial colonies at 4XMIC measured after 15 mins by time-kill kinetics analysis; assay type: functional, organism-based
[11] = system: Escherichia coli; experiment: Bactericidal activity against Escherichia coli ATCC 25922 assessed as eradication of bacterial colonies at 16XMIC measured after 30 mins time-kill kinetics analysis; assay type: functional, organism-based
[12] = Increase in intracellular ROS level in Staphylococcus aureus ATCC 25923 at 4XMIC measured after 10 mins by DCFH-DA staining based fluorescence analysis relative to control; assay type: functional
[13] = Increase in intracellular ROS level in Escherichia coli ATCC 25922 at 4XMIC measured after 10 mins by DCFH-DA staining based fluorescence analysis relative to control; assay type: functional
[14] = system: Staphylococcus aureus; experiment: Antibacterial activity against Staphylococcus aureus ATCC 25923 assessed as inhibition of bacterial growth incubated for 16 to 18 hrs in presence of ROS scavenger, NAC by broth microdilution method; assay type: functional; details: time 16-18 hrs
[15] = system: Escherichia coli; experiment: Antibacterial activity against Escherichia coli ATCC 25922 assessed as inhibition of bacterial growth incubated for 16 to 18 hrs in presence of ROS scavenger, NAC by broth microdilution method; assay type: functional; details: time 16-18 hrs
[16] = system: Staphylococcus aureus; experiment: Antibacterial activity against methicillin-resistant Staphylococcus aureus ATCC 43300 assessed as inhibition of bacterial growth measured after 10 passages by broth microdilution method; assay type: functional, organism-based
[17] = system: Staphylococcus aureus; experiment: Inhibition of biofilm formation in methicillin-resistant Staphylococcus aureus ATCC 43300 incubated for 24 hrs under stationary conditions by crystal violet staining based analysis; assay type: functional, organism-based
[18] = system: Staphylococcus aureus; experiment: Inhibition of biofilm formation in methicillin-resistant Staphylococcus aureus ATCC 43300 at MIC incubated for 24 hrs under stationary conditions by crystal violet staining based analysis; assay type: functional
[19] = system: Staphylococcus aureus; experiment: Disruption of established biofilm in methicillin-resistant Staphylococcus aureus ATCC 43300 assessed as reduction of relative biofilm mass incubated for 24 hrs by crystal violet staining based analysis; assay type: functional, organism-based; details: DDE = dose-dependent effect
[20] = system: Staphylococcus aureus; experiment: Disruption of established biofilm in methicillin-resistant Staphylococcus aureus ATCC 43300 assessed as reduction of relative biofilm mass at 64XMIC incubated for 24 hrs by crystal violet staining based analysis; assay type: functional
[21] = Cytotoxicity against human HEK293 cells assessed as reduction of cell viability incubated for 48 hrs by MTT assay; assay type: toxicity, cell-based
[22] = Half-life in Sprague-Dawley rat at 8 mg/kg, iv by LC-MS analysis; assay type: ADME, organism-based; details: in vivo
[23] = AUC (0 to infinity) in Sprague-Dawley rat at 8 mg/kg, iv by LC-MS analysis; assay type: ADME, organism-based; set-up: time infinity, dose 8 mg/kg, route iv; details: in vivo
[24] = Acute toxicity in BALB/c mouse assessed as lethargy at >12 mg/kg, iv; assay type: organism-based; details: in vivo
[25] = Acute toxicity in BALB/c mouse assessed as clonic convulsion at >12 mg/kg, iv; assay type: organism-based; details: in vivo
[26] = Acute toxicity in BALB/c mouse assessed as anorexia at >12 mg/kg, iv; assay type: organism-based; details: in vivo
[27] = Acute toxicity in BALB/c mouse assessed as ruffled fur at >12 mg/kg, iv; assay type: organism-based; details: in vivo
[28] = Acute toxicity in BALB/c mouse assessed as animal's death at >12 mg/kg, iv; assay type: organism-based; details: in vivo
[29] = Subacute toxicity in BALB/c mouse assessed as animal's death at 4 to 8 mg/kg, iv administered everyday for 7 days; assay type: organism-based; details: in vivo, 168 h, dose 4-8 mg/kg, time 7 day
[30] = Subacute toxicity in BALB/c mouse assessed as animals abnormal behaviour at 4 to 8 mg/kg, iv administered everyday for 7 days; assay type: organism-based; details: in vivo, 168 h, dose 4-8 mg/kg, time 7 day
[31] = Subacute toxicity in BALB/c mouse assessed as histopathological changes of heart at 4 to 8 mg/kg, iv administered for 7 days and measured on day 14 by hematoxyin-eosin staining based analysis; assay type: organism-based; details: in vivo, 336 h, dose 4-8 mg/kg, time 14 day
[32] = Subacute toxicity in BALB/c mouse assessed as histopathological changes of liver at 4 to 8 mg/kg, iv administered for 7 days and measured on day 14 by hematoxyin-eosin staining based analysis; assay type: organism-based; details: in vivo, 336 h, dose 4-8 mg/kg, time 14 day
[33] = Subacute toxicity in BALB/c mouse assessed as histopathological changes of spleen at 4 to 8 mg/kg, iv administered for 7 days and measured on day 14 by hematoxyin-eosin staining based analysis; assay type: organism-based; details: in vivo, 336 h, dose 4-8 mg/kg, time 14 day
[34] = Subacute toxicity in BALB/c mouse assessed as histopathological changes of lungs at 4 to 8 mg/kg, iv administered for 7 days and measured on day 14 by hematoxyin-eosin staining based analysis; assay type: organism-based; details: in vivo, 336 h, dose 4-8 mg/kg, time 14 day
[35] = Subacute toxicity in BALB/c mouse assessed as histopathological changes of kidney at 4 to 8 mg/kg, iv administered for 7 days and measured on day 14 by hematoxyin-eosin staining based analysis; assay type: organism-based; details: in vivo, 336 h, dose 4-8 mg/kg, time 14 day
[36] = Tmax in Sprague-Dawley rat at 8 mg/kg, iv by LC-MS analysis; assay type: ADME, organism-based; details: in vivo
[37] = MRT (0 to infinity) in Sprague-Dawley rat at 8 mg/kg, iv by LC-MS analysis; assay type: ADME, organism-based; details: in vivo
[38] = Cmax in Sprague-Dawley rat at 8 mg/kg, iv by LC-MS analysis; assay type: ADME, organism-based; set-up: dose 8 mg/kg, route iv; details: in vivo
[39] = Mean clearance rate, Clz in Sprague-Dawley rat at 8 mg/kg, iv by LC-MS analysis; assay type: ADME, organism-based; details: in vivo
[40] = system: Staphylococcus aureus; experiment: Antibacterial activity against methicillin-resistant Staphylococcus aureus ATCC 43300 infected in BALB/c mouse assessed as increase in animal's survival rate at 4 mg/kg, iv administered at 1, 6, 25 and 30 hrs post-infection and measured for 7 day post-infection; assay type: functional, organism-based
[41] = system: Staphylococcus aureus; experiment: Antibacterial activity against methicillin-resistant Staphylococcus aureus ATCC 43300 infected in BALB/c mouse assessed as reduction in bacterial burden in lungs at 4 mg/kg, iv administered at 1, 6, 25 and 30 hrs post-infection and measured on day 7 post-infection by colony forming unit assay; assay type: functional, organism-based; details: time 7.0 day
[42] = system: Staphylococcus aureus; experiment: Antibacterial activity against methicillin-resistant Staphylococcus aureus ATCC 43300 infected in BALB/c mouse assessed as reduction in TNF-alpha content in lungs at 4 mg/kg, iv administered at 1, 6, 25 and 30 hrs post-infection and measured on day 7 post-infection by ELISA; assay type: functional, organism-based; details: time 7.0 day
[43] = system: Staphylococcus aureus; experiment: Antibacterial activity against methicillin-resistant Staphylococcus aureus ATCC 43300 infected in BALB/c mouse assessed as increase in IL-10 content in lungs at 4 mg/kg, iv administered at 1, 6, 25 and 30 hrs post-infection and measured on day 7 post-infection by ELISA; assay type: functional, organism-based; details: time 7.0 day
[44] = system: Staphylococcus aureus; experiment: Antibacterial activity against methicillin-resistant Staphylococcus aureus ATCC 43300 infected in BALB/c mouse assessed as reduction in MPO content in lungs at 4 mg/kg, iv administered at 1, 6, 25 and 30 hrs post-infection and measured on day 7 post-infection by ELISA; assay type: functional, organism-based; details: time 7.0 day
[45] = system: Staphylococcus aureus; experiment: Antibacterial activity against methicillin-resistant Staphylococcus aureus ATCC 43300 infected in BALB/c mouse assessed as reduction of NF-kappaB p65 expression in lungs at 4 mg/kg, iv administered at 1, 6, 25 and 30 hrs post-infection and measured on day 7 post-infection by western blot analysis; assay type: functional, organism-based; details: time 7.0 day
[46] = system: Staphylococcus aureus; experiment: Antibacterial activity against methicillin-resistant Staphylococcus aureus ATCC 43300 infected in BALB/c mouse assessed as reduction of histopathological changes of pulmonary tissue at 4 mg/kg, iv administered at 1, 6, 25 and 30 hrs post-infection and measured on day 7 post-infection by hematoxylin-eosin staining based analysis; assay type: functional, organism-based; details: time 7.0 day

## CCCCCC[n+]1ccn(-c2ccc(C#Cc3ccc(-n4cc[n+](CCCCCC)c4)cc3)cc2)c1.[Br-].[Br-]
[1]
  MIC: 0.5 µg/mL
[2]
  MIC: 0.25 µg/mL
[3]
  MIC: 1 µg/mL
[4]
  HC5: 800 µg/mL
[5]
  selectivity ratio: 1600
[6]
  MIC: 8 µg/mL
[7]
  MIC: 32 µg/mL
[8]
  MIC: 32 µg/mL
[9]
  MIC: 32 µg/mL
[10]
  Activity: Active
[11]
  Activity: Active
[12]
  fold change (FC): 2
[13]
  fold change (FC): 20
[14]
  MIC: 64 µg/mL
[15]
  MIC: 32 µg/mL
[16]
  Activity: Active
[17]
  inhibition: Active
[18]
  inhibition (INH): 100%
[19]
  Activity: Dde
[20]
  inhibition (INH): 69%
[21]
  CC50 at 48 h: 224 µg/mL
[22]
  half-life: 51.4 min
[23]
  AUC(0-inf): 5120 ng·h/mL
[24]
  Activity: Non-Toxic
[25]
  Activity: Non-Toxic
[26]
  Activity: Non-Toxic
[27]
  Activity: Non-Toxic
[28]
  Activity: Non-Toxic
[29]
  Activity: Non-Toxic
[30]
  Activity: Non-Toxic
[31]
  Activity: Non-Toxic
[32]
  Activity: Non-Toxic
[33]
  Activity: Non-Toxic
[34]
  Activity: Non-Toxic
[35]
  Activity: Non-Toxic
[36]
  Tmax: 4.98 min
[37]
  MRT inf: 32.5 min
[38]
  Cmax: 12000 ng/mL
[39]
  clearance: 27.2 mL/min/kg
[40]
  Activity: Active
[41]
  Activity: Active
[42]
  Activity: Active
[43]
  Activity: Active
[44]
  Activity: Active
[45]
  Activity: Active
[46]
  Activity: Active
